Experiments:
[1] = molar heat capacity at constant pressure; conditions: 101.3 kPa, Liquid, Small sample (50 mg) DSC
[2] = molar heat capacity at constant pressure; xn = mol fraction of the nth substance listed; conditions: 101.3 kPa, Liquid, Small sample (50 mg) DSC

Cc1ccc(C)cc1 [1,4-dimethylbenzene]
[1]
Conditions	molar heat capacity at constant pressure [J/K/mol]
288.15 K	178.86
298.15 K	182.56
308.15 K	186.15

Cc1ccc(C)cc1 [1,4-dimethylbenzene] + CCCCCCCCCC
molar heat capacity at constant pressure [J/K/mol], [2]
Conditions	288.15 K	298.15 K	308.15 K
x1 = 0.05066	303.41	308.28	313.15
x1 = 0.1092	295.7	300.41	305.32
x1 = 0.1983	283.92	288.58	293.34
x1 = 0.3105	269	273.63	278.21
x1 = 0.3427	264.73	269.34	273.97
x1 = 0.4538	250.03	254.47	258.95
x1 = 0.4919	244.95	249.41	253.84
x1 = 0.5995	230.71	235.12	239.35
x1 = 0.6975	217.77	222.04	226.15
x1 = 0.7866	206.1	210.33	214.31
x1 = 0.8403	199.13	203.21	207.08
x1 = 0.8993	191.5	195.54	199.3
x1 = 0.9499	185.04	188.96	192.6

Cc1ccc(C)cc1 [1,4-dimethylbenzene] + COC(=O)OC
molar heat capacity at constant pressure [J/K/mol], [2]
Conditions	288.15 K	298.15 K	308.15 K
x2 = 0	178.86	182.56	186.15
x2 = 0.04522	178.07	181.79	185.28
x2 = 0.09687	177.32	180.82	184.22
x2 = 0.2003	175.72	178.96	182.14
x2 = 0.3136	173.97	176.99	179.84
x2 = 0.4125	172.39	175.09	177.74
x2 = 0.4946	171.06	173.56	176.04
x2 = 0.5368	170.43	172.79	175.13
x2 = 0.6528	168.55	170.61	172.04
x2 = 0.8445	165.6	167.14	168.84
x2 = 0.9	164.89	166.25	167.79

CCCCCCCCCC [decane]
[1]
Conditions	molar heat capacity at constant pressure [J/K/mol]
288.15 K	310.09
298.15 K	315.04
308.15 K	320.03

CCCCCCCCCC [decane] + COC(=O)OC
molar heat capacity at constant pressure [J/K/mol], [2]
Conditions	288.15 K	298.15 K	308.15 K
x2 = 0	310.09	315.04	320.03
x2 = 0.0486	302.45	307.21	311.97
x2 = 0.1015	294.55	298.95	303.55
x2 = 0.1491	287.67	291.87	296.24
x2 = 0.198	280.61	284.73	288.82
x2 = 0.3041	266.76	269.88	273.33
x2 = 0.4015	255.05	256.83	259.45
x2 = 0.4497	250.05	250.5	252.64
x2 = 0.5505	242.42	236.43	238.36
x2 = 0.6011	237.62	229.81	230.9
x2 = 0.6454	231.62	223.97	–
x2 = 0.6945	223.46	216.47	216.49
x2 = 0.7943	202.82	198.92	199.64
x2 = 0.8464	–	189.34	190.56
x2 = 0.8975	179.17	180.34	181.8
x2 = 0.949	170.97	172.02	173.51

COC(=O)OC [dimethyl carbonate]
[1]
Conditions	molar heat capacity at constant pressure [J/K/mol]
288.15 K	163.61
298.15 K	164.65
308.15 K	165.92

COC(=O)OC [dimethyl carbonate] + Cc1ccc(C)cc1
[2], x1 = 1
Conditions	molar heat capacity at constant pressure [J/K/mol]
288.15 K	163.61
298.15 K	164.65
308.15 K	165.92
